Patent US7109243B2 (IRM LLC, priority 2003, dated 2006)

Assays:
[1] = biological target: Cathepsin S (Homo sapiens, UniProt P25774); assay: Cathepsin S inhibition assay (fluorogenic peptide substrate); assay type: biochemical; conditions: Table II, compounds of Formula I; read-out: Ki Cat. S
Method in brief: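 Ki values come from nonlinear fitting of inhibited hydrolysis rates, taking free and total inhibitor concentrations as equal. Rates measured as rising fluorescence at 380/450 nm after reaction start with 50 μM final acetyl-HPVK-aminocarbamoylcoumarin.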

[2] = biological target: T1, Cathepsin K (Homo sapiens, UniProt P43235); assay: Cathepsin K inhibition assay (fluorogenic peptide substrate); selectivity ratio vs cathepsin S; assay type: biochemical; conditions: ratio of cathepsin K inhibition constant to cathepsin S inhibition constant; Table II
T1 sequence (P43235 115-329): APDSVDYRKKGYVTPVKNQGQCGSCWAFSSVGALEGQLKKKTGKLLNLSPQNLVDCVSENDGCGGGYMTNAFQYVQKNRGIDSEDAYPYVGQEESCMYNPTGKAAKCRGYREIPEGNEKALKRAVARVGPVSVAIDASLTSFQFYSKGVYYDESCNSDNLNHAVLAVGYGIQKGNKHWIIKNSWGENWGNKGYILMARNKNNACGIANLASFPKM
Method in brief: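 Inhibition constants for competitive inhibitors come from apparent values fitted to enzyme progress curves. Substrate, acetyl-Lys-His-Pro-Lys-aminocarbamoylcoumarin (40 μM final), starts the reaction; fluorescence rise read at 380 nm excitation, 450 nm emission. Selectivity ratio: other cathepsin constant over cathepsin S constant.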

Cathepsin S, sequence (P25774 115-331, species assumed): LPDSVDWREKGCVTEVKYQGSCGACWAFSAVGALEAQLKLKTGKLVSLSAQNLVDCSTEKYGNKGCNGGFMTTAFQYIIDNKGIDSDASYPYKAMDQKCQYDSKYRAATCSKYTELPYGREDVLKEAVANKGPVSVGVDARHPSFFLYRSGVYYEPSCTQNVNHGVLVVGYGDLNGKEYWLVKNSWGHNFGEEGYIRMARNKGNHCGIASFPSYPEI

| SMILES | Ki [1] | Selectivity for Cat. S over Cat. K [2] |
| --- | --- | --- |
| COc1ccc(NCCNC(=O)[C@H](CCC2CCCCC2)NC(=O)c2cc3cc(Cl)ccc3o2)cc1 [Compound 134, (S)-5-Chloro-benzofuran-2-carboxylic acid {3-cyclohexyl-1-[2-(4-methoxy-phenylamino)-ethylcarbamoyl]-propyl}-amide] | < 1000 nM | ++ (++, >100) |
| COc1ccc(NCCNC(=O)[C@H](Cc2ccc(-c3ccc(O)cc3)cc2)NC(=O)c2cccc(C)c2)cc1 [Compound 289, (S)-N-{2-(4′-Hydroxy-biphenyl-4-yl)-1-[2-(4-methoxy-phenylamino)-ethylcarbamoyl]-ethyl}-3-methyl-benzamide] | < 1000 nM | ++ (++, >100) |
| O=C(Cc1ccsc1)N[C@@H](CC1CCCCC1)C(=O)NCCNc1ccc(F)cc1 [Compound 77, 3-Cyclohexyl-N-[2-(4-fluoro-phenylamino)-ethyl]-2-(S)-(2-thiophen-3-yl-acetylamino)-propionamide] | < 100 nM | ++ (++, >100) |
| COc1ccc(NCCNC(=O)[C@H](Cc2ccccc2)NC(=O)NCc2ccc(F)cc2)cc1 [Compound 91, (S)-2-[3-(4-Fluoro-benzyl)-ureido]-N-[2-(4-methoxy-phenylamino)-ethyl]-3-phenyl-propionamide] | < 10000 nM | + (+, >10) |
| COc1ccc(NCCNC(=O)[C@H](Cc2ccc(Oc3ccc(C)cc3)cc2)NC(=O)c2cccc(C)c2)cc1 [Compound 45, (S)-N-[1-[2-(4-Methoxy-phenylamino)-ethylcarbamoyl]-2-(4-p-tolyloxy-phenyl)-ethyl]-3-methyl-benzamide] | < 100 nM | +++ (+++, >1000) |
| O=C(Cc1ccc(C(F)(F)F)cc1)N[C@@H](CC1CCCCC1)C(=O)NCCNc1ccc(F)cc1 [Compound 325, 3-Cyclohexyl-N-[2-(4-fluoro-phenylamino)-ethyl]-2-(S)-[2-(4-trifluoromethyl-phenyl)-acetylamino]-propionamide] | < 100 nM | ++ (++, >100) |
| COc1ccc(NCCNC(=O)[C@H](Cc2ccc(-c3ccc(Cl)cc3)cc2)NC(=O)c2cccc(C)c2)cc1 [Compound 278, (S)-N-{2-(4′-Chloro-biphenyl-4-yl)-1-[2-(4-methoxy-phenylamino)-ethylcarbamoyl]-ethyl}-3-methyl-benzamide] | < 1000 nM | ++ (++, >100) |
| O=C(Cc1ccc(Cl)cc1)N[C@@H](CC1CCCCC1)C(=O)NCCNc1ccc(F)cc1 [Compound 305, 2-(S)-[2-(4-Chloro-phenyl)-acetylamino]-3-cyclohexyl-N-[2-(4-fluoro-phenylamino)-ethyl]-propionamide] | < 100 nM | ++ (++, >100) |
| O=C(N[C@@H](CC1CCCCC1)C(=O)NCCNc1ccc(OC(F)(F)F)cc1)c1cccc(-c2ccccc2Cl)c1 [Compound 34, 2′-Chloro-biphenyl-3-carboxylic acid (S)-{2-cyclohexyl-1-[2-(4-trifluoromethoxy-phenylamino)-ethylcarbamoyl]-ethyl}-amide] | < 100 nM | +++ (+++, >1000) |
| O=C(N[C@@H](CC1CCCCC1)C(=O)NCCNc1ccc(F)cc1)C(F)c1ccccc1 (mixture of isomers) [Compound 86, 3-Cyclohexyl-2-(S)-(2-(R,S)-fluoro-2-phenyl-acetylamino)-N-[2-(4-fluoro-phenylamino)-ethyl]-propionamide] | < 100 nM | ++ (++, >100) |
| COc1ccc(NCCNC(=O)[C@H](CC2CCCCC2)NC(=O)c2cccc(-c3csc(C)n3)c2)cc1 [Compound 123, (S)-N-{2-Cyclohexyl-1-[2-(4-methoxy-phenylamino)-ethylcarbamoyl]-ethyl}-3-(2-methyl-thiazol-4-yl)-benzamide] | < 100 nM | ++ (++, >100) |
| COc1ccc(NCCNC(=O)[C@H](CC2CCCCC2)NC(=O)CNc2ccccc2)cc1 [Compound 159, (S)-3-Cyclohexyl-N-[2-(4-methoxy-phenylamino)-ethyl]-2-(2-phenylamino-acetylamino)-propionamide] | < 100 nM | +++ (+++, >1000) |
| CC[C@@H](C(=O)N[C@@H](CC1CCCCC1)C(=O)NCCNc1ccc(OC(F)(F)F)cc1)c1ccccc1 [Compound 135, N-{2-cyclohexyl-1-(S)-[2-(4-trifluoromethoxy-phenylamino)-ethylcarbamoyl]-ethyl}-2-(R)-phenyl-butyramide] | < 100 nM | +++ (+++, >1000) |
| COc1ccc(NCCNC(=O)C(NC(=O)c2cccc(C)c2)c2cccs2)cc1 (stereo not drawn) [Compound 226, N-{[2-(4-Methoxy-phenylamino)-ethylcarbamoyl]-thiophen-2-yl-methyl}-3-methyl-benzamide] | < 10000 nM | + (+, >10) |
| COc1ccc(NCCNC(=O)[C@H](CC2CCCCC2)NC(=O)c2cc3cc(F)ccc3[nH]2)cc1 [Compound 113, (S)-5-Fluoro-1H-indole-2-carboxylic acid {2-cyclohexyl-1-[2-(4-methoxy-phenylamino)-ethylcarbamoyl]-ethyl}-amide] | < 100 nM | + (+, >10) |
| O=C(Cc1cccc(Cl)c1)N[C@@H](CC1CCCCC1)C(=O)NCCNc1ccc(F)cc1 [Compound 302, 2-(S)-[2-(3-Chloro-phenyl)-acetylamino]-3-cyclohexyl-N-[2-(4-fluoro-phenylamino)-ethyl]-propionamide] | < 100 nM | ++ (++, >100) |
| O=C(N[C@@H](CC1CCCCC1)C(=O)NCCNc1ccc(OC(F)(F)F)cc1)c1ccc(-c2ccccc2)o1 [Compound 65, 5-Phenyl-furan-2-carboxylic acid (S)-{2-cyclohexyl-1-[2-(4-trifluoromethoxy-phenylamino)-ethylcarbamoyl]-ethyl}-amide] | < 100 nM | ++ (++, >100) |
| COc1ccc(NCCNC(=O)[C@H](CC2CCCCC2)NC(=O)c2cc(Cl)cc(Cl)c2)cc1 [Compound 179, (S)-3,5-Dichloro-N-{2-cyclohexyl-1-[2-(4-methoxy-phenylamino)-ethylcarbamoyl]-ethyl}-benzamide] | < 100 nM | +++ (+++, >1000) |
| COc1ccc(NCCNC(=O)[C@H](CC2CCCCC2)NC(=O)c2cnn(-c3ccc(Cl)cc3)c2C(F)(F)F)cc1 [Compound 116, (S)-1-(4-Chloro-phenyl)-5-trifluoromethyl-1H-pyrazole-4-carboxylic acid {2-cyclohexyl-1-[2-(4-methoxy-phenylamino)-ethylcarbamoyl]-ethyl}-amide] | < 100 nM | +++ (+++, >1000) |
| O=C(N[C@@H](CC1CCCCC1)C(=O)NCCNc1ccc(F)cc1)c1ccc(-c2cccc(C(F)(F)F)c2)o1 [Compound 85, 5-(3-Trifluoromethyl-phenyl)-furan-2-carboxylic acid (S)-{2-cyclohexyl-1-[2-(4-fluoro-phenylamino)-ethylcarbamoyl]-ethyl}-amide] | < 100 nM | ++ (++, >100) |
| O=C(N[C@@H](CC1CCCCC1)C(=O)NCCNc1ccc(OC(F)(F)F)cc1)c1ccc(OC(F)F)cc1 [Compound 60, N-(S)-{2-cyclohexyl-1-[2-(4-trifluoromethoxy-phenylamino)-ethylcarbamoyl]-ethyl}-4-difluoromethoxy-benzamide] | < 100 nM | + (+, >10) |
